PubChem BioAssay AID1963874 (Molecular Pharmacology Branch, DTP, NCI, 2024)

Test system: 253994-281-T-J1-PDC KRAS-mutant spheroids with HUVEC/MSC, viability
Assay: Anticancer human tumor 253994-281-T-J1-PDC patient-derived colorectal carcinoma cell line growth inhibition [KRAS2]
Settings: for viability, T/C: stronger effect = lower value
Summary of the method: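 KRAS-mutant tumor cells were grown as spheroids with HUVEC endothelial cells and human MSCs as stroma. Targeted agents were tested alone and with KRAS pathway inhibitors. Doses started at or near clinical Cmax, or 10 microM, descending half-log.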

[1] = curve of first compound, second compound 0.1 µM
[2] = curve of first compound, second compound 0.316 µM
[3] = curve of first compound, second compound 1 µM
[4] = curve of first compound, second compound 3.16 µM
[5] = curve of first compound, second compound 10 µM
[6] = second compound 0.1 µM, first compound 0.00316 µM
[7] = second compound 0.1 µM, first compound 0.01 µM
[8] = second compound 0.1 µM, first compound 0.0316 µM
[9] = second compound 0.1 µM, first compound 0.1 µM
[10] = second compound 0.1 µM, first compound 0.316 µM
[11] = second compound 0.1 µM, first compound 1 µM
[12] = second compound 0.316 µM, first compound 0.00316 µM
[13] = second compound 0.316 µM, first compound 0.01 µM
[14] = second compound 0.316 µM, first compound 0.0316 µM
[15] = second compound 0.316 µM, first compound 0.1 µM
[16] = second compound 0.316 µM, first compound 0.316 µM
[17] = second compound 0.316 µM, first compound 1 µM
[18] = second compound 1 µM, first compound 0.00316 µM
[19] = second compound 1 µM, first compound 0.01 µM
[20] = second compound 1 µM, first compound 0.0316 µM
[21] = second compound 1 µM, first compound 0.1 µM
[22] = second compound 1 µM, first compound 0.316 µM
[23] = second compound 1 µM, first compound 1 µM
[24] = second compound 3.16 µM, first compound 0.00316 µM
[25] = second compound 3.16 µM, first compound 0.01 µM
[26] = second compound 3.16 µM, first compound 0.0316 µM
[27] = second compound 3.16 µM, first compound 0.1 µM
[28] = second compound 3.16 µM, first compound 0.316 µM
[29] = second compound 3.16 µM, first compound 1 µM
[30] = second compound 10 µM, first compound 0.00316 µM
[31] = second compound 10 µM, first compound 0.01 µM
[32] = second compound 10 µM, first compound 0.0316 µM
[33] = second compound 10 µM, first compound 0.1 µM
[34] = second compound 10 µM, first compound 0.316 µM
[35] = second compound 10 µM, first compound 1 µM
[36] = second compound 0.1 µM, first compound 3.16 µM
[37] = second compound 0.316 µM, first compound 3.16 µM
[38] = second compound 1 µM, first compound 3.16 µM
[39] = second compound 3.16 µM, first compound 3.16 µM
[40] = second compound 10 µM, first compound 3.16 µM
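Note: spheroids exposed to agents for seven days before readout.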
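Throughout, for viability, T/C: percent of DMSO vehicle control viability.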

With `CC(C)NCC(C(=O)N1CCN(c2ncnc3c2C(C)CC3O)CC1)c1ccc(Cl)cc1` (stereo not given) the viability, T/C (compound 0.0316 µM) was 102% [middle of 5 runs], the viability, T/C (compound 0.1 µM) was 107% [middle of 5 runs] and the viability, T/C (compound 1 µM) was 97.2% [middle of 5 runs]. For the same molecule, the viability, T/C (compound 10 µM) was 89.9% [middle of 5 runs] and the IC50 (curve of compound) was over 10000 nM.
With `CCN1CCN(Cc2ccc(Nc3ncc(F)c(-c4cc(F)c5nc(C)n(C(C)C)c5c4)n3)nc2)CC1` + C=CC(=O)N1CCN(c2nc(=O)n(-c3c(C)ccnc3C(C)C)c3nc(-c4c(O)cccc4F)c(F)cc23)C(C)C1 the IC50 [1] was over 1000 nM, the IC50 [2] was over 1000 nM and the IC50 [3] was over 1000 nM. It also gave an IC50 [4] of 851 nM, an IC50 [5] of 706 nM and a viability, T/C [6] of 89.8%. The viability, T/C [7] was 92.3%, the viability, T/C [8] was 84.2% and the viability, T/C [9] was 79.2%. The viability, T/C [10] was 73.9%, the viability, T/C [11] was 52.5% and the viability, T/C [12] was 86.8%. For the same molecule, the viability, T/C [13] was 99.2%, the viability, T/C [14] was 87.1% and the viability, T/C [15] was 94.8%. The viability, T/C [16] was 74.9%, the viability, T/C [17] was 50.4% and the viability, T/C [18] was 95.8%. It also gave a viability, T/C [19] of 94.2%, a viability, T/C [20] of 89.5% and a viability, T/C [21] of 81.4%. For the same molecule, the viability, T/C [22] was 76.7%, the viability, T/C [23] was 50.6% and the viability, T/C [24] was 103%. The viability, T/C [25] was 101%, the viability, T/C [26] was 88.1% and the viability, T/C [27] was 90.8%. It also gave a viability, T/C [28] of 79.5%, a viability, T/C [29] of 44.6% and a viability, T/C [30] of 95.1%. For the same molecule, the viability, T/C [31] was 107%, the viability, T/C [32] was 93.2% and the viability, T/C [33] was 97.6%. For the same molecule, the viability, T/C [34] was 79.3% and the viability, T/C [35] was 37%.
With `CCN1CCN(Cc2ccc(Nc3ncc(F)c(-c4cc(F)c5nc(C)n(C(C)C)c5c4)n3)nc2)CC1` + CNCc1ccccc1-c1csc(C(C)Nc2nc(C)nc3cc(OC)c(OC)cc23)c1 the IC50 [1] was 683 nM, the IC50 [2] was 530 nM and the IC50 [3] was 420 nM. For the same molecule, the IC50 [4] was under 3.16 nM, the IC50 [5] was under 3.16 nM and the viability, T/C [6] was 97.4%. The viability, T/C [7] was 82.5%, the viability, T/C [8] was 84.1% and the viability, T/C [9] was 78.7%. The viability, T/C [10] was 71.4%, the viability, T/C [11] was 39.8% and the viability, T/C [12] was 101%. The viability, T/C [13] was 78%, the viability, T/C [14] was 73.5% and the viability, T/C [15] was 85.5%. For the same molecule, the viability, T/C [16] was 64.7%, the viability, T/C [17] was 31.4% and the viability, T/C [18] was 82.7%. For the same molecule, the viability, T/C [19] was 82.2%, the viability, T/C [20] was 78.2% and the viability, T/C [21] was 76.3%. For the same molecule, the viability, T/C [22] was 62.5%, the viability, T/C [23] was 13.5% and the viability, T/C [24] was 44.8%. It also gave a viability, T/C [25] of 37%, a viability, T/C [26] of 36.4% and a viability, T/C [27] of 20.3%. For the same molecule, the viability, T/C [28] was 11.9%, the viability, T/C [29] was 0.18% and the viability, T/C [30] was 0.2%. It also gave a viability, T/C [31] of 0.39%, a viability, T/C [32] of 0.19% and a viability, T/C [33] of 0.14%. It also gave a viability, T/C [34] of 0.34% and a viability, T/C [35] of 0.22%.
`O=C(c1cc(Cc2n[nH]c(=O)c3ccccc23)ccc1F)N1CCN(C(=O)C2CC2)CC1` + C=CC(=O)N1CCN(c2nc(=O)n(-c3c(C)ccnc3C(C)C)c3nc(-c4c(O)cccc4F)c(F)cc23)C(C)C1 showed an IC50 [1] of over 10000 nM, an IC50 [2] of over 10000 nM and an IC50 [3] of over 10000 nM. It also gave an IC50 [4] of over 10000 nM, an IC50 [5] of over 10000 nM and a viability, T/C [8] of 101%. The viability, T/C [9] was 93%, the viability, T/C [10] was 102% and the viability, T/C [11] was 94.9%. It also gave a viability, T/C [36] of 95%, a viability, T/C (second compound 0.1 µM, first compound 10 µM) of 82.2% and a viability, T/C [14] of 95.7%. For the same molecule, the viability, T/C [15] was 105%, the viability, T/C [16] was 84.8% and the viability, T/C [17] was 101%. It also gave a viability, T/C [37] of 92.4%, a viability, T/C (second compound 0.316 µM, first compound 10 µM) of 90.3% and a viability, T/C [20] of 88.6%. The viability, T/C [21] was 91%, the viability, T/C [22] was 83% and the viability, T/C [23] was 97.2%. For the same molecule, the viability, T/C [38] was 103%, the viability, T/C (second compound 1 µM, first compound 10 µM) was 96.7% and the viability, T/C [26] was 107%. For the same molecule, the viability, T/C [27] was 97.8%, the viability, T/C [28] was 113% and the viability, T/C [29] was 98%. It also gave a viability, T/C [39] of 97.8%, a viability, T/C (second compound 3.16 µM, first compound 10 µM) of 91.8% and a viability, T/C [32] of 117%. The viability, T/C [33] was 105%, the viability, T/C [34] was 89.4% and the viability, T/C [35] was 89.5%. It also gave a viability, T/C [40] of 112% and a viability, T/C (second compound 10 µM, first compound 10 µM) of 93.5%.
With `CC(=O)OC12COC1CC(O)C1(C)C(=O)C(O)C3=C(C)C(OC(=O)C(O)C(NC(=O)OC(C)(C)C)c4ccccc4)CC(O)(C(OC(=O)c4ccccc4)C21)C3(C)C` (stereo not given) + C=CC(=O)N1CCN(c2nc(=O)n(-c3c(C)ccnc3C(C)C)c3nc(-c4c(O)cccc4F)c(F)cc23)C(C)C1 the IC50 [1] was 33.8 nM, the IC50 [2] was 27.6 nM and the IC50 [3] was 19.2 nM. It also gave an IC50 [4] of 28.3 nM, an IC50 [5] of 54.8 nM and a viability, T/C [7] of 78.6%. The viability, T/C [8] was 51.4%, the viability, T/C [9] was 26.4% and the viability, T/C [10] was 27.2%. For the same molecule, the viability, T/C [11] was 29.8%, the viability, T/C [36] was 25.3% and the viability, T/C [13] was 92.4%. The viability, T/C [14] was 43%, the viability, T/C [15] was 34.4% and the viability, T/C [16] was 28.1%. For the same molecule, the viability, T/C [17] was 25.9%, the viability, T/C [37] was 26.8% and the viability, T/C [19] was 59.9%. The viability, T/C [20] was 44.4%, the viability, T/C [21] was 29.6% and the viability, T/C [22] was 29%. It also gave a viability, T/C [23] of 27.2%, a viability, T/C [38] of 25.2% and a viability, T/C [25] of 69.1%. The viability, T/C [26] was 47.9%, the viability, T/C [27] was 33.3% and the viability, T/C [28] was 27.7%. The viability, T/C [29] was 27.5%, the viability, T/C [39] was 28.6% and the viability, T/C [31] was 71.2%. It also gave a viability, T/C [32] of 55%, a viability, T/C [33] of 46.6% and a viability, T/C [34] of 29.7%. It also gave a viability, T/C [35] of 30.3% and a viability, T/C [40] of 36.1%.
